The text below walks through data of publication PMC10268594 (2023).

Molecules are shown by their SMILES.

Assay in all cases: single-molecule MspA-M2 nanopore kinetics
For assay [1], the system named is Theophylline-binding aptamer (RNA, aptamer) AGUGAUACCAGCAUCGUCUUGAUGCCCUUGGCAGCACU
Particulars: 1 M KCl; +180 mV, aptamer cis, 25 µM theophylline trans.

The subject of assay [2] is Serotonin-binding aptamer (DNA, aptamer) CGACTGGTAGGCAGATAGGGGAAGCTGATTCGATGCGTGGGTCG
As to conditions: 1 M KCl; +120 mV, aptamer cis, serotonin trans.

The subject of assay [3] is Dopamine-binding aptamer (DNA, aptamer) CGACGCCAGTTTGAAGGTTCGTTCGCAGGTGTGGAGTGACGTCG
As to conditions: 1 M KCl; 10 mM Tris pH 7.4, +180 mV, aptamer cis, 25 µM dopamine trans.

As to `Cn1c(=O)c2[nH]cnc2n(C)c1=O`, in assay [1], the dissociation constant Kd – broadly, the constant that tells how readily two partners part at equilibrium – turned out to be 72 ± 17 µM. In the case of `NCCc1c[nH]c2ccc(O)cc12`, the dissociation constant (Kd) in assay [2] is recorded as 9.0 ± 1.3 µM. The compound `NCCc1ccc(O)c(O)c1` registered a dissociation constant (Kd) in assay [3] of 27 ± 3 µM.
